Data on ten compounds can be found in patent publication US6774141B1, “Calanolide and related antiviral compounds, compositions, and uses thereof” (The United States of America as represented by the …, priority 1992, dated 2004).

For data set [1], the system named is CEM-SS cells. Kind of data set: XTT assay, direct cytotoxicity upon uninfected CEM-SS target cells. The data set is classed as cell-based, human. The source says: (§1) Briefly, the procedure was as follows.
A general note: Tetrazolium dyes change colour on reduction, which living cells bring about.

The test system of data set [2] is HIV-1. The data set is described as follows: microbe, parasite or virus in culture. The note with it: for anti-HIV activity in the primary screening assay / inhibition of the cytopathic effects of HIV-1 upon CEM-SS cells: result in words; for antiviral potency relative to calanolide A: overall of XTT and BCECF assays; for inhibition of the cytopathic effects of HIV-1 upon CEM-SS cells: battery of interrelated assays, 6 days. The text has this:
Pure compounds were initially evaluated for antiviral activity using an XTT-tetrazolium anti-HIV primary screening assay described previously (Boyd, M. R., in AIDS Etiology, Diagnosis, Treatment and Prevention (DeVita V. T., Jr., Hellman S., Rosenberg S. A., eds.), pp 305-319 (Philadelphia: Lippincott, 1988); Gustafson, K. R., et al., J. Med. Chem., 35, 1978-1986 (1992); Weislow, O. S., et al., J. Natl. Cancer Inst., 81, 577-586 (1989); Gulakowski, R. J., et al., J. Virol. Methods, 33, 87-100 (1991)). The CEM-SS human lymphocytic target cell line used in all assays was maintained in RPMI 1640 medium (Gibco, Grand Island, N.Y.), without phenol red, and was supplemented with 5% fetal bovine serum, 2 mM L-glutamine and 50 μg/ml gentamicin (complete medium). Exponentially-growing cells were pelleted and resuspended at a concentration of 2.0×10^5 cells/ml in complete medium. The Haitian variant of HIV, HTLV-IIIRF (3.54×10^6 SFU/ml), was used throughout. Frozen virus stock solutions were thawed immediately before use and resuspended in complete medium to yield […]. The appropriate amounts of the pure compounds for anti-HIV evaluations were dissolved in 100% dimethylsulfoxide (DMSO), then diluted in complete medium to the desired initial concentration (and with the final DMSO content not exceeding 1%). All serial drug dilutions, reagent additions, and plate-to-plate transfers were carried out with an automated Biomek 1000 Workstation (Beckman Instruments, Palo Alto, Calif.).
Briefly, the procedure was as follows. Uninfected CEM-SS cells were plated at a density of 1×10^4 cells in 50 μl of complete medium. Diluted HIV-1 virus was then added to appropriate wells in a volume of 50 μl to yield a multiplicity of infection of 0.6. Appropriate cell, virus and drug controls were incorporated in each experiment; the final volume in each microtiter well was 200 μl. Quadruplicate wells were used for virus-infected cells, and duplicate wells were used for uninfected cells. Plates were incubated at 37° C. in an atmosphere containing 5% CO2 for 6 days. Subsequently, aliquots of cell-free supernatant were removed from each well using the Biomek, and analyzed for reverse transcriptase activity, p24 antigen production and synthesis of infectious virions as described (Gulakowski, R. J., et al., J. Virol. Methods, 33, 87-100 (1991)). Cellular growth or viability then was estimated on the remaining contents of each well using the XTT (Weislow, O. S., et al., J. Natl. Cancer Inst., 81, 577-586 (1989)), BCECF (Rink, T. L., et al., J. Cell. Biol., 95, 189-196 (1982)) and DAPI (McCaffrey, T. A., et al., In Vitro Cell Develop. Biol., 24, 247-252 (1988)) assays as described (Gulakowski, R. J., et al., J. Virol. Methods, 33, 87-100 (1991)).
Background: Protection from cytopathic effect is a common read-out in antiviral testing.

The test system of data set [3] is HIV-1. As to conditions: for EC50: read-out: EC50 μM (±S.D.) p24, quadruplicate tests, supernatant viral core protein.
For data set [4], the system named is HIV-1. As to conditions: for EC50: read-out: EC50 μM (±S.D.) SFU, quadruplicate tests, supernatant syncytium-forming units.
The subject of data set [5] is HIV-1. The note with it: for EC50: read-out: EC50 μM (±S.D.) RT, quadruplicate tests, supernatant reverse transcriptase.
The subject of data set [6] is CEM-SS cells. Kind of data set: BCECF assay, direct cytotoxicity upon uninfected CEM-SS target cells. The class given is cell-based, human. As to conditions: quadruplicate tests, cytotoxicity to CEM-SS, read-out: IC50 μM (± SD) BCECF.
Description: as §1

Data set [7] has as its system HIV-1. The data set is described as follows: microbe, parasite or virus in culture. The note with it: Human immunodeficiency virus 1, CEM-SS, read-out: EC50 μM (±S.D.) SFU.
Data set [8] is described as follows: XTT assay, direct cytotoxicity upon uninfected CEM-SS target cells. As to conditions: human, uninfected CEM-SS cells; FIGS. 4A-D, CEM-SS cells, 6 days. The class given is cell-based, human.
Description: as §1

Data set [9] concerns HIV-1. The data set is described as follows: microbe, parasite or virus in culture. The note with it: Human immunodeficiency virus 1, CEM-SS, read-out: EC50 μM (±S.D.) p24.
The test system of data set [10] is HIV-1. Kind of data set: microbe, parasite or virus in culture. The note with it: Human immunodeficiency virus 1, CEM-SS, read-out: EC50 μM (±S.D.) RT.
For a further data set, the system named is HIV. The note with it: in most patients; cited from earlier work.
Setting [11] is: primary screening assay, cytotoxicity to CEM-SS cells, read-out: IC50.
Where [12] appears, read: primary screening assay, HIV-1 in CEM-SS cells.
[13] abbreviates: quadruplicate tests, cytotoxicity to CEM-SS, read-out: IC50 μM (± SD) XXT.
The mark [14] stands for this setting: read-out: EC50 μM (± SD) BCECF, quadruplicate tests, HIV-1 strain RF, CEM-SS.
[15] abbreviates: read-out: EC50 μM (± SD) XXT, quadruplicate tests, HIV-1 strain RF, CEM-SS.
Setting [16] is: HIV-1-infected CEM-SS, FIG. 4D, result in words.

Where two headings read alike, the source gives them in different places.

Turning to `CCCc1cc(=O)oc2c3c(c4c(c12)OC(C)(C)C=C4)O[C@H](C)[C@@H](C)[C@@H]3OC(C)=O` [12-acetoxycalanolide A], the IC50 (in general, the concentration that gives 50% inhibition) with CEM-SS cells [1] (setting [11]) is 13 µM. Besides, the “anti-HIV activity in the primary screening assay” value (from here on “anti-HIV activity”) in the data set on HIV-1 [2] (HIV-1 in CEM-SS cells) was “active”. Also, the EC50 (in general, the concentration giving half of the maximal effect) with HIV-1 [2] (setting [12]) was 2.7 µM.

With `CCCc1cc(=O)oc2c3c(c4c(c12)OC(C)(C)C=C4)O[C@H](C)[C@@H](C)[C@@H]3OC` [12-methoxycalanolide A], in the data set with HIV-1 [2] (HIV-1 in CEM-SS cells), the “anti-HIV activity” value was “not detectable”.

Consider `CCCc1cc(=O)oc2c3c(c4c(c12)OC(C)(C)C=C4)O[C@H](C)[C@@H](C)[C@H]3OC` [12-methoxycalanolide B], for which the “anti-HIV activity” value in the data set on HIV-1 [2] (HIV-1 in CEM-SS cells) is “weak but detectable”.

For the compound `CCCc1cc(=O)oc2c3c(c4c(c12)OC(C)(C)C=C4)OC(C)C(C)C3O` (stereo not shown) [Compound 6], the “anti-HIV activity” value in the data set on HIV-1 [2] (HIV-1 in CEM-SS cells) is recorded as “weak but detectable”.

Consider `CCCc1cc(=O)oc2c3c(c4c(c12)OC(C)(C)C=C4)O[C@@H](C)[C@H](C)[C@@H]3O` [Costatolide, costatolide], for which the EC50 was determined as 0.11 µM in the data set on HIV-1 [3]; 0.14 µM in the data set with HIV-1 [4]; 0.12 µM with HIV-1 [5]; 0.2 µM in the data set with HIV-1 [2] (setting [14]); 0.23 µM in the data set on HIV-1 [2] (setting [15]). Besides, the IC50 in the data set with CEM-SS cells [1] (setting [13]) was found to be 10 µM; in the data set with CEM-SS cells [6], 8 µM. The “antiviral potency relative to calanolide A” value with HIV-1 [2] (HIV-1 strain RF, CEM-SS) is “about ⅔”.

As to `CCCc1cc(=O)oc2c3c(c4c(c12)OC(C)(C)CC4)O[C@H](C)[C@@H](C)[C@@H]3O` [DH-calanolide A, 7,8-dihydrocalanolide A], the EC50 worked out at 0.12 µM with HIV-1 [3]; 0.17 µM with HIV-1 [4]; 0.13 µM with HIV-1 [5]; 0.19 µM in the data set with HIV-1 [2] (setting [14]); 0.23 µM in the data set on HIV-1 [2] (setting [15]). Further, the figures for the IC50 in the data set on CEM-SS cells [1] (setting [13]) and in the data set with CEM-SS cells [6] were 12.5 µM and 18.7 µM, respectively. The “antiviral potency relative to calanolide A” value with HIV-1 [2] (HIV-1 strain RF, CEM-SS) was “about ⅔”.

Take `CCCc1cc(=O)oc2c3c(c4c(c12)OC(C)(C)CC4)O[C@@H](C)[C@H](C)[C@@H]3O` [DH-costatolide, 7,8-dihydrocostatolide]: the EC50 stood at 0.24 µM with HIV-1 [3]; 0.19 µM in the data set on HIV-1 [4]; 0.25 µM in the data set on HIV-1 [5]; 0.31 µM with HIV-1 [2] (setting [14]); 0.3 µM in the data set with HIV-1 [2] (setting [15]). Also, the figures for the IC50 in the data set on CEM-SS cells [1] (setting [13]) and in the data set on CEM-SS cells [6] were 18.7 µM and 10.3 µM, respectively. In addition, in the data set with HIV-1 [2] (HIV-1 strain RF, CEM-SS), the “antiviral potency relative to calanolide A” value is “about ⅓”.

As to `CCCc1cc(=O)oc2c3c(c4c(c12)OC(C)(C)C=C4)O[C@H](C)[C@@H](C)[C@@H]3O` [calanolide A], in the data set with HIV-1 [3] (setting [16]), the “production of p24” value is given as “strikingly inhibited”. The “production of SFU” value with HIV-1 [4] (setting [16]) is “strikingly inhibited”. The “production of RT” value in the data set with HIV-1 [5] (setting [16]) is on record as “strikingly inhibited”. Further, the EC50 in the data set with HIV-1 [7] was 0.08 µM; in the data set on HIV-1 [9], 0.07 µM; in the data set on HIV-1 [2] (Human immunodeficiency virus 1, CEM-SS, 144 h, read-out: EC50, inhibition of the cytopathic effects of HIV-1), roughly 0.1 µM; in the data set on HIV-1 [2] (Human immunodeficiency virus 1, CEM-SS, read-out: EC50 μM (± SD) BCECF), 0.16 µM; in the data set with HIV-1 [2] (Human immunodeficiency virus 1, CEM-SS, read-out: EC50 μM (± SD) XXT) it was 0.13 µM; in the data set with HIV-1 [10], 0.07 µM. This compound returned an IC50 at 6 days in data set [8] of roughly 13 µM. The IC50 in the data set on CEM-SS cells [1] (Homo sapiens, quadruplicate tests, cytotoxicity to CEM-SS, read-out: IC50 μM (± SD) XXT) was 14.3 µM; in the data set with CEM-SS cells [6] (Homo sapiens), 14.3 µM. Moreover, the “anti-HIV activity” value in the data set with HIV-1 [2] (HIV-1 in CEM-SS cells) is recorded as “complete protection”. In addition, in the data set on HIV-1 [2], the “inhibition of the cytopathic effects of HIV-1 upon CEM-SS cells” value is on record as “complete inhibition”.

As for `Nc1ccn([C@H]2CC[C@@H](CO)O2)c(=O)n1` [ddC, 2′,3′-dideoxycytidine], the “virustatic range, dose” value in the data set on HIV is listed as 0.005-0.25 mg/kg body weight.

For calanolide B, in the data set with CEM-SS cells [1] (setting [11]), the IC50 is 15 µM. In addition, the “anti-HIV activity” value in the data set with HIV-1 [2] (HIV-1 in CEM-SS cells) is recorded as “complete inhibition”. In addition, the “inhibition of the cytopathic effects of HIV-1 upon CEM-SS cells” value in the data set on HIV-1 [2] is reported as “complete protection”. This compound returned an EC50 with HIV-1 [2] (setting [12]) of 0.4 µM.
